Literature values, collected in patent US8109064B2, “Methods and systems for contact lens sterilization” (Menicon Signapore Pte Ltd., priority 2006, dated 2012).

Conditions: in vivo

Q: Which corneal staining does the source give for polyhexamine biguanide [PHMB] here?
A: The corneal staining was “implicated in corneal staining”.
